Here are results for one compound from US20090291857A1, “METHODS TO IDENTIFY INHIBITORS OF THE UNFOLDED PROTEIN RESPONSE” (THE BOARD OF TRUSTEES OF THE LELAND STANFORD JUNIOR …, priority 2006, published 2009).

The test system of one assay is XBP-1s (5X-UPRE). Briefly: 5X-UPRE luciferase reporter assay. It is filed as cell-based, human. How it is done:
HT1080 cells stably expressing the XBP-luciferase construct were grown in 60 mm dishes to 60-70% confluency. Following hypoxia treatment, cells were washed twice with PBS, lysed in 400 μl 1× reporter lysis buffer (RLB) (Promega, Madison Wis.) for 30 min at 24° C. Lysates (100 μl) were mixed with an equal volume of luciferase substrate (Promega), and assayed using a luminometer. For 5×-UPRE-luciferase reporter assays, cells were co-transfected with the appropriate reporter plasmid and a control plasmid (pSV40-beta-gal) using Lipofectamine 2000 (Invitrogen, San Diego, Calif.). Twenty-four hours after transfection, fresh media was added, and cells were treated with Tm or shifted to hypoxia. After treatment, cells were lysed in 1× RLB and analyzed for luciferase activity as described above. Beta-galactosidase activity was determined using the beta-galactosidase enzyme assay system (Promega).
A. XBP-luciferase reporter construct. […] After 24 hours, luciferase activity was analyzed in an automated plate reader. For each cell line, values are expressed as the percent inhibition of the median for Tm/Tg-treated wells, corrected for background. […] Values are expressed as the fold increases over uninduced levels. […] Cells were harvested, lysed, and analyzed by immunoblotting with antisera specific for HIF-1α (top), XBP-1s (middle) or actin (bottom). […]
In general terms: A reporter such as luciferase makes a cellular process visible.

A further assay has as its system XBP-1s. Briefly: Western immunoblot analysis of XBP-1s in HT1080 cells. The format is cell-based, human. The settings on record: 2 μM; for levels of XBP-1s under hypoxia: 24 hours of hypoxia. The procedure:
Cells were harvested, lysed, and analyzed by Western blot using anti-XBP-1 antisera (lower panel) or anti-HIF-1 antisera (top panel) to confirm hypoxia exposure.
Cells (2×10^6) were cultured in 10-cm dishes, collected using a cell scraper at 4° C., and lysed by addition of 150 μl cell lysis buffer [50 mM Tris pH 7.4, 150 mM NaCl, 10% glycerol, 0.5% Triton X-100. 0.5% NP-40, 2 mM Na3VO4, 20 mM beta-glycerophosphate, 10 mM NaF, 1 mM DTT, 1 mM PMSF). Lysates were centrifuged for 5 min at 10,000×g, and proteins (˜40 μg) were resolved by SDS-PAGE followed by semi-dry transfer to nitrocellulose membranes. Membranes were blocked in TBS-5% milk supplemented with 0.1% Tween-20. The blots were then probed overnight with relevant antibodies, washed, and incubated for 2 hours with species-specific secondary antibodies conjugated to horseradish peroxidase. After washing in block solution, immunoreactive material was detected by enhanced chemiluminescence (SuperSignal West Dura Extended, Pierce, Inc., Rockville, Ill.).
A. XBP-luciferase reporter construct. Firefly luciferase was inserted downstream of the IRE1α splice site in human XBP-1 to enable the conditional translation of luciferase under ER stress in an IRE1α-dependent manner. B. Selective inhibition of the XBP-luciferase reporter by irestatin 9389. […] After 24 hours, luciferase activity was analyzed in an automated plate reader. For each cell line, values are expressed as the percent inhibition of the median for Tm/Tg-treated wells, corrected for background. […] Values are expressed as the fold increases over uninduced levels. […] Cells were harvested, lysed, and analyzed by immunoblotting with antisera specific for HIF-1α (top), XBP-1s (middle) or actin (bottom). […] Total RNA was analyzed by Northern blotting using radiolabeled probes specific for P58^IPK or DER-1. […]
Since these assays employed a chimeric XBP-luciferase substrate, we next determined whether irestatin 9389 could inhibit the function of endogenous XBP-1s. […]

Regarding `Cc1csc(NC(=O)CSc2nc3c(c(C(F)(F)F)c2C#N)CCC3)n1` [Compound 9389], the “diminution of 5X-UPRE luciferase response under hypoxia” value in the assay on XBP-1s (5X-UPRE) (48 hours of hypoxia, vehicle 170-fold) is on record as “more than 90%”. For the same compound, the “5X-UPRE luciferase induction over untreated cells” value in the assay with XBP-1s (5X-UPRE) (Tm plus irestatin, Tm alone ~12-fold) is recorded as < 4 fold. For the same compound, the “levels of XBP-1s under hypoxia” value is “blocks the accumulation of XBP-1s” in the assay with XBP-1s (listed as Irestatin 9389) and “decreased levels of XBP-1s” with XBP-1s (listed as irestatin 9389). Also, the “accumulation of XBP-1s following treatment with Tm” value in the assay on XBP-1s (Tm 4 μg/ml 20 hours) was “blocked the accumulation of XBP-1s”.
